Assay results as given in ChEMBL document CHEMBL1123638 (J Med Chem, 1987).
≈ marks a conversion by molar mass, not a printed value.

Columns and labels:
Dihydrofolate reductase [1] = target: T1, Dihydrofolate reductase (Rattus norvegicus, UniProt Q920D2); assay: Inhibitory activity against dihydrofolate reductase (DHFR) enzyme from rat liver; details: read-out: I50
T1 sequence (Q920D2 whole entry): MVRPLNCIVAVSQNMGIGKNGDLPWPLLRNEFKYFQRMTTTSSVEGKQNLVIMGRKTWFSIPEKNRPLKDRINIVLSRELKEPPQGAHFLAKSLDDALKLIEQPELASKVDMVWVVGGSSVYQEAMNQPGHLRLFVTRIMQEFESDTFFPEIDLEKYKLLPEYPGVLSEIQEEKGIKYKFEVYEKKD

Escherichia coli = assay: In vitro antibacterial activity against Escherichia coli (CN314)
Klebsiella aerogenes = assay: In vitro antibacterial activity against Enterobacter aerogenes (2200/86)
Proteus vulgaris = assay: In vitro antibacterial activity against Proteus vulgaris (CN3296)
Shigella flexneri = assay: In vitro antibacterial activity against Shigella flexneri (CN6007)
Salmonella = assay: In vitro antibacterial activity against Salmonella typhi (CN512)
Staphylococcus aureus = assay: In vitro antibacterial activity against Staphylococcus aureus (CN491)
Klebsiella pneumoniae = assay: microbe, parasite or virus in culture
Description: In vitro antibacterial activity against Klebsiella pneumoniae (CN 3632)

[2] = Partition coefficient (logP); format: physicochemical; details: octanol/water
[3] = Acid dissociation constant was determined; format: ADME
Dihydrofolate reductase [4] = target: T2, Dihydrofolate reductase (Gallus gallus, UniProt P00378); assay: Inhibitory activity against dihydrofolate reductase (DHFR) enzyme from chicken liver; details: read-out: I50
T2 sequence (P00378 whole entry): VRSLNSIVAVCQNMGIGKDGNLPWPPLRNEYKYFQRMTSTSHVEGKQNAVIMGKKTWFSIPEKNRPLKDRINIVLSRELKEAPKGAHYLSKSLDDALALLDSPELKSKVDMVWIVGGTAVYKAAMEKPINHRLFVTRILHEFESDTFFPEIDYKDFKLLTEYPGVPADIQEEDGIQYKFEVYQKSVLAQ

[5] = target: Bifunctional dihydrofolate reductase-thymidylate synthase (Plasmodium berghei str. ANKA, UniProt Q27713); assay: Inhibitory activity against dihydrofolate reductase (DHFR) enzyme from Plasmodium berghei; details: read-out: I50
Chain of Bifunctional dihydrofolate reductase-thymidylate synthase (Q27713 whole entry): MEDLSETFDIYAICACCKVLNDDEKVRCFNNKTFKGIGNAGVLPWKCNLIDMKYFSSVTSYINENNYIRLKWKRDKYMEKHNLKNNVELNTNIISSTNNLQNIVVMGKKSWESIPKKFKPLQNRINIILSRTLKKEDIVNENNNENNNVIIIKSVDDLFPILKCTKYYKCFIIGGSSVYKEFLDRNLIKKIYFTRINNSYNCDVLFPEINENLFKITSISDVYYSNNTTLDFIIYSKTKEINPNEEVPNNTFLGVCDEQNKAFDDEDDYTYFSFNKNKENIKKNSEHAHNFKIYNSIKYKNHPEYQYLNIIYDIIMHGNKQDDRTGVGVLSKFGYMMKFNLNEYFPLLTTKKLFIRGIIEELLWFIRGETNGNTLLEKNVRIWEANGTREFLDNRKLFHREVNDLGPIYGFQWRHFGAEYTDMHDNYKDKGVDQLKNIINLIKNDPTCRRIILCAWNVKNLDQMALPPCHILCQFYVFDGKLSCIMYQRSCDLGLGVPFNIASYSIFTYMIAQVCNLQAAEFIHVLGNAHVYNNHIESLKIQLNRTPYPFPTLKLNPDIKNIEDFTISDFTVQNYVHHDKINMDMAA

Row | Compound | IC50 (Dihydrofolate reductase [1]) | MIC (Escherichia coli) | MIC (Klebsiella aerogenes) | MIC (Proteus vulgaris) | MIC (Shigella flexneri) | MIC (Salmonella) | MIC (Staphylococcus aureus) | MIC (Klebsiella pneumoniae) | logP [2] | pKa [3] | IC50 (Dihydrofolate reductase [4]) | IC50 [5]
1 | CC(C)(C)c1ccc(Cc2cnc(N)nc2N)cc1 | 230 µM | 10 µg/mL (≈ 39 µM) | 30 µg/mL (≈ 117 µM) | 100 µg/mL (≈ 390 µM) | 30 µg/mL (≈ 117 µM) | 10 µg/mL (≈ 39 µM) | 10 µg/mL (≈ 39 µM) | 100 µg/mL (≈ 390 µM) |  |  |  | 
2 | COc1ccc(Cc2cnc(N)nc2N)cc1 | 170 µM |  |  |  |  |  |  |  |  |  |  | 
3 | CCc1cc(Cc2cnc(N)nc2N)cc(CC)c1CC | 38 µM | 1 µg/mL (≈ 3.52 µM) | 10 µg/mL (≈ 35.2 µM) | 30 µg/mL (≈ 105 µM) | 3 µg/mL (≈ 10.5 µM) | 1 µg/mL (≈ 3.52 µM) | 0.1 µg/mL (≈ 0.352 µM) | 10 µg/mL (≈ 35.2 µM) | 1.33 | 7.12 | 33 µM | 0.073 µM
4 | CCc1ccc(Cc2cnc(N)nc2N)cc1C(C)C | 29 µM | 30 µg/mL (≈ 111 µM) | 100 µg/mL (≈ 370 µM) | 100 µg/mL (≈ 370 µM) | 30 µg/mL (≈ 111 µM) | 10 µg/mL (≈ 37 µM) | 3 µg/mL (≈ 11.1 µM) | 100 µg/mL (≈ 370 µM) |  |  |  | 
5 | CCc1ccc(Cc2cnc(N)nc2N)cc1CC | 59 µM | 3 µg/mL (≈ 11.7 µM) | 10 µg/mL (≈ 39 µM) | 30 µg/mL (≈ 117 µM) | 10 µg/mL (≈ 39 µM) | 3 µg/mL (≈ 11.7 µM) | 3 µg/mL (≈ 11.7 µM) | 30 µg/mL (≈ 117 µM) |  |  | 120 µM | 0.068 µM
6 | CCc1ccc(Cc2cnc(N)nc2N)cc1 | > 40 µM | 10 µg/mL (≈ 43.8 µM) | 10 µg/mL (≈ 43.8 µM) | 30 µg/mL (≈ 131 µM) | 10 µg/mL (≈ 43.8 µM) | 10 µg/mL (≈ 43.8 µM) | 30 µg/mL (≈ 131 µM) | 30 µg/mL (≈ 131 µM) |  |  |  | 
7 | CC(C)c1ccc(Cc2cnc(N)nc2N)cc1 | 210 µM | 16 µg/mL (≈ 66 µM) |  | 125 µg/mL (≈ 516 µM) | 32 µg/mL (≈ 132 µM) | 16 µg/mL (≈ 66 µM) | 8 µg/mL (≈ 33 µM) |  |  |  |  | 
8 | COc1ccc(Cc2cnc(N)nc2N)cc1OC [DIAVERIDINE] | 78 µM | 0.5 µg/mL (≈ 1.92 µM) | 0.5 µg/mL (≈ 1.92 µM) | 5 µg/mL (≈ 19.2 µM) | 0.5 µg/mL (≈ 1.92 µM) | 0.1 µg/mL (≈ 0.384 µM) | 5 µg/mL (≈ 19.2 µM) | 5 µg/mL (≈ 19.2 µM) |  |  | 300 µM | 0.21 µM
9 | COc1cc(Cc2cnc(N)nc2N)cc(OC)c1OC [TRIMETHOPRIM] |  | 0.1 µg/mL (≈ 0.344 µM) | 0.3 µg/mL (≈ 1.03 µM) | 1 µg/mL (≈ 3.44 µM) | 0.1 µg/mL (≈ 0.344 µM) | 0.03 µg/mL (≈ 0.103 µM) | 0.3 µg/mL (≈ 1.03 µM) | 1 µg/mL (≈ 3.44 µM) |  |  |  | 
